Data published in patent publication US6936585B2, “Corticotropin releasing factor 2 receptor agonists” (priority 2002, dated 2005).
Peptide text beside a SMILES is read from it.

Experiments:
[1] = biological target: T1, CRF2R (Homo sapiens, UniProt Q13324); assay: CRF2R agonist activation (EC50 / Emax), called comparative CRF binding; assay type: cell-based; details: for Emax: read-out: CRF2R Emax; for EC50: read-out: CRF2R EC50
T1 sequence (Q13324 1-411): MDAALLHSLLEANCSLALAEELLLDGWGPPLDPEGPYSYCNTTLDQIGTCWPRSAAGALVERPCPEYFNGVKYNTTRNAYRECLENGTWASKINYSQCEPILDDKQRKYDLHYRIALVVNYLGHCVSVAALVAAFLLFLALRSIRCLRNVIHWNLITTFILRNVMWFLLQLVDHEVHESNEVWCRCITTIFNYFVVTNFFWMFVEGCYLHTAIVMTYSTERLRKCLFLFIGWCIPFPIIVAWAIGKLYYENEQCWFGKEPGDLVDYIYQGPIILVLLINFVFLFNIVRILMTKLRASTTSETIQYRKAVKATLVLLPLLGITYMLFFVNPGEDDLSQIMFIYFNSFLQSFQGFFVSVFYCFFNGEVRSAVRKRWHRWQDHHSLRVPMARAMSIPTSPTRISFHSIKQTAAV
Procedure, shortened: (§1)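 Cells expressing full-length human CRF1R or CRF2R were exposed to peptide or vehicle control, and receptor activation was gauged as cAMP induction. cAMP was measured in cell lysates or via a cAMP-responsive element driving a reporter gene such as luciferase, CAT, GFP or alkaline phosphatase.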

[2] = biological target: T2, CRF1R (Homo sapiens, UniProt P34998); assay: CRF1R agonist activation (EC50 / Emax), called comparative CRF binding; assay type: cell-based; details: for Emax: read-out: CRF1R Emax; for EC50: read-out: CRF1R EC50
T2 sequence (P34998 24-415): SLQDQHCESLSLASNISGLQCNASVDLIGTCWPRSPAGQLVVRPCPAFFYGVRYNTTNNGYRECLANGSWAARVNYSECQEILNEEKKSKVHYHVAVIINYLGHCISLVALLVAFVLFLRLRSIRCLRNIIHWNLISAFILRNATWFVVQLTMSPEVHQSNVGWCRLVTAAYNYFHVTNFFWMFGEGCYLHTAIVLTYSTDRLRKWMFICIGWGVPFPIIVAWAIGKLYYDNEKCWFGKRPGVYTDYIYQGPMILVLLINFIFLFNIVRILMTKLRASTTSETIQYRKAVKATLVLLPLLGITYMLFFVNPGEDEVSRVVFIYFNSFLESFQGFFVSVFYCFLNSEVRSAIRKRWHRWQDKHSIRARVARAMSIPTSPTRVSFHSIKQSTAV
Procedure, shortened: as §1

Row | SMILES | Emax [1] | Emax [2] | EC50 [1] | EC50 [2]
1 | CC[C@H](C)[C@H](N)C(=O)N[C@H](C(=O)N[C@@H](CC(C)C)C(=O)N[C@@H](CO)C(=O)N[C@@H](CC(C)C)C(=O)N[C@@H](CC(=O)O)C(=O)N[C@H](C(=O)N1CCC[C@H]1C(=O)N[C@H](C(=O)NCC(=O)N[C@@H](CC(C)C)C(=O)N[C@@H](CC(C)C)C(=O)N[C@@H](CCC(N)=O)C(=O)N[C@H](C(=O)N[C@@H](CC(C)C)C(=O)N[C@@H](CC(C)C)C(=O)N[C@@H](CCC(=O)O)C(=O)N[C@@H](CCC(N)=O)C(=O)N[C@@H](C)C(=O)N[C@@H](CCCNC(=N)N)C(=O)N[C@@H](C)C(=O)N[C@@H](CCC(=O)O)C(=O)N[C@@H](C)C(=O)N[C@@H](C)C(=O)N[C@@H](CCCNC(=N)N)C(=O)N[C@@H](CCC(=O)O)C(=O)N[C@@H](CCC(N)=O)C(=O)N[C@@H](C)C(=O)N[C@H](C(=O)N[C@H](C(=O)N[C@@H](CC(N)=O)C(=O)N[C@@H](C)C(=O)N[C@@H](CCCNC(=N)N)C(=O)N[C@H](C(=O)N[C@@H](CC(C)C)C(=O)N[C@@H](C)C(=O)N[C@@H](CCCNC(=N)N)C(=O)N[C@H](C(N)=O)C(C)C)[C@@H](C)CC)[C@@H](C)O)[C@@H](C)O)[C@@H](C)CC)[C@@H](C)CC)C(C)C)C(C)C [compound 122] (H-IVLSLDVPIGLLQILLEQARAEAAREQATTNARILARV-NH2; N-terminus assumed) | 97% | 10.7% | – | –
2 | CC[C@H](C)[C@H](N)C(=O)N[C@H](C(=O)N[C@@H](CC(C)C)C(=O)N[C@@H](CO)C(=O)N[C@@H](CC(C)C)C(=O)N[C@@H](CC(=O)O)C(=O)N[C@H](C(=O)N1CCC[C@H]1C(=O)N[C@H](C(=O)NCC(=O)N[C@@H](CC(C)C)C(=O)N[C@@H](CC(C)C)C(=O)N[C@@H](CCC(N)=O)C(=O)N[C@H](C(=O)N[C@@H](CC(C)C)C(=O)N[C@@H](CC(C)C)C(=O)N[C@@H](CCC(=O)O)C(=O)N[C@@H](CCC(N)=O)C(=O)N[C@@H](C)C(=O)N[C@@H](CCCNC(=N)N)C(=O)N[C@@H](CCC(N)=O)C(=O)N[C@@H](CCC(=O)O)C(=O)N[C@@H](C)C(=O)N[C@@H](C)C(=O)N[C@@H](CCCNC(=N)N)C(=O)N[C@@H](CCC(=O)O)C(=O)N[C@@H](CCC(N)=O)C(=O)N[C@@H](C)C(=O)N[C@H](C(=O)N[C@H](C(=O)N[C@@H](CC(N)=O)C(=O)N[C@@H](C)C(=O)N[C@@H](CCCNC(=N)N)C(=O)N[C@H](C(=O)N[C@@H](CC(C)C)C(=O)N[C@@H](C)C(=O)N[C@@H](CCCNC(=N)N)C(=O)N[C@H](C(N)=O)C(C)C)[C@@H](C)CC)[C@@H](C)O)[C@@H](C)O)[C@@H](C)CC)[C@@H](C)CC)C(C)C)C(C)C [compound 123] (H-IVLSLDVPIGLLQILLEQARQEAAREQATTNARILARV-NH2; N-terminus assumed) | 93.8% | 9.6% | – | –
3 | CC[C@H](C)[C@H](N)C(=O)N[C@H](C(=O)N[C@@H](CC(C)C)C(=O)N[C@@H](CO)C(=O)N[C@@H](CC(C)C)C(=O)N[C@@H](CC(=O)O)C(=O)N[C@H](C(=O)N1CCC[C@H]1C(=O)N[C@H](C(=O)NCC(=O)N[C@@H](CC(C)C)C(=O)N[C@@H](CC(C)C)C(=O)N[C@@H](CCC(N)=O)C(=O)N[C@H](C(=O)N[C@@H](CC(C)C)C(=O)N[C@@H](CC(C)C)C(=O)N[C@@H](CCC(=O)O)C(=O)N[C@@H](CCC(N)=O)C(=O)N[C@@H](C)C(=O)N[C@@H](CCCCN)C(=O)N[C@@H](CCC(N)=O)C(=O)N[C@@H](CCC(=O)O)C(=O)N[C@@H](C)C(=O)N[C@@H](C)C(=O)N[C@@H](CCCNC(=N)N)C(=O)N[C@@H](CCC(=O)O)C(=O)N[C@@H](CCC(N)=O)C(=O)N[C@@H](C)C(=O)N[C@H](C(=O)N[C@H](C(=O)N[C@@H](CC(N)=O)C(=O)N[C@@H](C)C(=O)N[C@@H](CCCNC(=N)N)C(=O)N[C@H](C(=O)N[C@@H](CC(C)C)C(=O)N[C@@H](C)C(=O)N[C@@H](CCCNC(=N)N)C(=O)N[C@H](C(N)=O)C(C)C)[C@@H](C)CC)[C@@H](C)O)[C@@H](C)O)[C@@H](C)CC)[C@@H](C)CC)C(C)C)C(C)C [compound 124] (H-IVLSLDVPIGLLQILLEQAKQEAAREQATTNARILARV-NH2; N-terminus assumed) | 94% | 6% | 3.49 nM | > 100 nM
4 | CC[C@H](C)[C@H](N)C(=O)N[C@H](C(=O)N[C@@H](CC(C)C)C(=O)N[C@@H](CO)C(=O)N[C@@H](CC(C)C)C(=O)N[C@@H](CC(=O)O)C(=O)N[C@H](C(=O)N1CCC[C@H]1C(=O)N[C@H](C(=O)NCC(=O)N[C@@H](CC(C)C)C(=O)N[C@@H](CC(C)C)C(=O)N[C@@H](CCC(N)=O)C(=O)N[C@H](C(=O)N[C@@H](CC(C)C)C(=O)N[C@@H](CC(C)C)C(=O)N[C@@H](CCC(=O)O)C(=O)N[C@@H](CCC(N)=O)C(=O)N[C@@H](CCC(=O)O)C(=O)N[C@@H](CCCCN)C(=O)N[C@@H](CCC(N)=O)C(=O)N[C@@H](CCC(=O)O)C(=O)N[C@@H](C)C(=O)N[C@@H](C)C(=O)N[C@@H](CCCNC(=N)N)C(=O)N[C@@H](CCC(=O)O)C(=O)N[C@@H](CCC(N)=O)C(=O)N[C@@H](C)C(=O)N[C@H](C(=O)N[C@H](C(=O)N[C@@H](CC(N)=O)C(=O)N[C@@H](C)C(=O)N[C@@H](CCCNC(=N)N)C(=O)N[C@H](C(=O)N[C@@H](CC(C)C)C(=O)N[C@@H](C)C(=O)N[C@@H](CCCNC(=N)N)C(=O)N[C@H](C(N)=O)C(C)C)[C@@H](C)CC)[C@@H](C)O)[C@@H](C)O)[C@@H](C)CC)[C@@H](C)CC)C(C)C)C(C)C [compound 125] (H-IVLSLDVPIGLLQILLEQEKQEAAREQATTNARILARV-NH2; N-terminus assumed) | 99% | 9% | – | –
5 | CC[C@H](C)[C@H](N)C(=O)N[C@H](C(=O)N[C@@H](CC(C)C)C(=O)N[C@@H](CO)C(=O)N[C@@H](CC(C)C)C(=O)N[C@@H](CC(=O)O)C(=O)N[C@H](C(=O)N1CCC[C@H]1C(=O)N[C@H](C(=O)NCC(=O)N[C@@H](CC(C)C)C(=O)N[C@@H](CC(C)C)C(=O)N[C@@H](CCC(N)=O)C(=O)N[C@H](C(=O)N[C@@H](CC(C)C)C(=O)N[C@@H](CC(C)C)C(=O)N[C@@H](CCC(=O)O)C(=O)N[C@@H](CCC(N)=O)C(=O)N[C@H](C(=O)N[C@@H](CCCNC(=N)N)C(=O)N[C@@H](C)C(=O)N[C@@H](CC(=O)O)C(=O)N[C@@H](C)C(=O)N[C@@H](C)C(=O)N[C@@H](CCCNC(=N)N)C(=O)N[C@@H](CCC(=O)O)C(=O)N[C@@H](CCC(N)=O)C(=O)N[C@@H](C)C(=O)N[C@H](C(=O)N[C@H](C(=O)N[C@@H](CC(N)=O)C(=O)N[C@@H](C)C(=O)N[C@@H](CCCNC(=N)N)C(=O)N[C@H](C(=O)N[C@@H](CC(C)C)C(=O)N[C@@H](C)C(=O)N[C@@H](CCCNC(=N)N)C(=O)N[C@H](C(N)=O)C(C)C)[C@@H](C)CC)[C@@H](C)O)[C@@H](C)O)[C@@H](C)O)[C@@H](C)CC)[C@@H](C)CC)C(C)C)C(C)C [compound 126] (H-IVLSLDVPIGLLQILLEQTRADAAREQATTNARILARV-NH2; N-terminus assumed) | 91% | 7% | 13 nM | > 100 nM
6 | CC[C@H](C)[C@H](N)C(=O)N[C@H](C(=O)N[C@@H](CC(C)C)C(=O)N[C@@H](CO)C(=O)N[C@@H](CC(C)C)C(=O)N[C@@H](CC(=O)O)C(=O)N[C@H](C(=O)N1CCC[C@H]1C(=O)N[C@H](C(=O)NCC(=O)N[C@@H](CC(C)C)C(=O)N[C@@H](CC(C)C)C(=O)N[C@@H](CCC(N)=O)C(=O)N[C@H](C(=O)N[C@@H](CC(C)C)C(=O)N[C@@H](CC(C)C)C(=O)N[C@@H](CCC(=O)O)C(=O)N[C@@H](CCC(N)=O)C(=O)N[C@H](C(=O)N[C@@H](CCCNC(=N)N)C(=O)N[C@@H](C)C(=O)N[C@@H](CCCNC(=N)N)C(=O)N[C@@H](C)C(=O)N[C@@H](C)C(=O)N[C@@H](CCCNC(=N)N)C(=O)N[C@@H](CCC(=O)O)C(=O)N[C@@H](CCC(N)=O)C(=O)N[C@@H](C)C(=O)N[C@H](C(=O)N[C@H](C(=O)N[C@@H](CC(N)=O)C(=O)N[C@@H](C)C(=O)N[C@@H](CCCNC(=N)N)C(=O)N[C@H](C(=O)N[C@@H](CC(C)C)C(=O)N[C@@H](C)C(=O)N[C@@H](CCCNC(=N)N)C(=O)N[C@H](C(N)=O)C(C)C)[C@@H](C)CC)[C@@H](C)O)[C@@H](C)O)[C@@H](C)O)[C@@H](C)CC)[C@@H](C)CC)C(C)C)C(C)C [compound 128] (H-IVLSLDVPIGLLQILLEQTRARAAREQATTNARILARV-NH2; N-terminus assumed) | 98% | 8% | 2.85 nM | > 100 nM
